Measured values taken from patent US20260225997A1, “IONIZABLE AMINE LIPIDS” (Intellia Therapeutics, Inc., priority 2018, published 2026).
Where two headings read alike, the source gives them in different places. Each block holds one molecule with its values, some of them ahead of it.

Experiments:
TTR [1] = experiment: TTR editing in mouse liver by NGS after i.v. LNP delivery of Cas9 mRNA and sgRNA; type: in vivo; settings: CD-1 female mice; for Editing Mean % Indel: G282 1:1
Summary of the method: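 Cas9 mRNA and chemically modified sgRNA were co-formulated in LNPs made of an ionizable amine lipid, DSPC, cholesterol and PEG-2k-DMG at a 6.0 N:P ratio. CD-1 female mice aged 6-10 weeks received tail-vein injections of 0.2 mL. Liver genomic DNA was then amplified around the target site and sequenced on an Illumina MiSeq, with editing calculated as indel-containing reads over total reads.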

[2] = pKa measurement of unformulated amine lipid (fluorescence, method of Jayaraman et al.); type: physicochemical; settings: 100 μM in 0.1 M phosphate buffer pH 4.5-9.0
Description: The pKa of each amine lipid was determined according to the method in Jayaraman, et al. (Angewandte Chemie, 2012) with the following adaptations. […] Lipid was diluted to 100 μM in 0.1 M phosphate buffer (Boston Bioproducts) where the pH ranged from 4.5-9.0. Fluorescence intensity was measured using excitation and emission wavelengths of 321 nm and 448 nm.

TTR [3] = experiment: Transthyretin (TTR) ELISA analysis of mouse serum after LNP dosing; type: in vivo; settings: for inhibition in vivo at 0.03 mg/kg / response vs control in vivo at 0.1 mg/kg: Mus musculus, iv; for inhibition in vivo at 0.03 mg/kg: read-out: Serum TTR (% KD); for response vs control in vivo at 0.1 mg/kg: read-out: Serum TTR % TSS
Summary of the method: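 Female CD-1 mice aged 6-10 weeks were grouped by body weight and given LNPs by lateral tail vein injection (0.2 mL per animal, about 10 mL per kilogram). Mice were bled by cardiac puncture under isoflurane into serum separator tubes. Serum was diluted 10,000-fold for the 0.1 mpk dose, and total TTR was quantified with a Mouse Prealbumin (Transthyretin) ELISA Kit following the kit directions.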

B2M = B2M editing in mouse liver by NGS after i.v. LNP delivery of Cas9 mRNA and sgRNA; type: in vivo; settings: CD-1 female mice; for Editing (%) of B2M in mouse liver: Example 52: LNP single dose 0.1 mg/kg i.v., sgRNA G650:Cas9 mRNA 1:1, NGS; for % Editing B2M in mouse liver: 7 days post-dose, G650 1:1
Description: Preparations of various LNP compositions were prepared with amine lipids. In assays for percent liver editing in mice, Cas9 mRNA and chemically modified sgRNA were formulated in LNPs, at either a 1:1 w/w ratio or a 1:2 w/w ratio. LNPs are formulated with a composition of a given ionizable lipid (e.g. an amine lipid), DSPC, cholesterol, and PEG-2k-DMG, with a 6.0 N:P ratio.
LNPs were administered to mice by a single dose at 0.1 mg/kg, unless otherwise noted and genomic DNA was isolated for NGS analysis as described below.
CD-1 female mice, ranging from 6-10 weeks of age were used in each study. Animals were weighed and grouped according to body weight for preparing dosing solutions based on group average weight. LNPs were dosed via the lateral tail vein in a volume of 0.2 mL per animal (approximately 10 mL per kilogram body weight). The animals were periodically observed post dose for adverse effects for at least 24 hours post dose. Animals were euthanized at 6 or 7 days by exsanguination via cardiac puncture under isoflurane anesthesia. Blood was collected into serum separator tubes or into tubes containing buffered sodium citrate for plasma as described herein. For studies involving in vivo editing, liver tissue was collected from each animal for DNA extraction and analysis.
Cohorts of mice were measured for liver editing by Next-Generation Sequencing (NGS).
In brief, to quantitatively determine the efficiency of editing at the target location in the genome, genomic DNA was isolated and deep sequencing was utilized to identify the presence of insertions and deletions introduced by gene editing.
PCR primers were designed around the target site (e.g., B2M), and the genomic area of interest was amplified. Additional PCR was performed according to the manufacturer's protocols (Illumina) to add the necessary chemistry for sequencing. The amplicons were sequenced on an Illumina MiSeq instrument. The reads were aligned to the […] after eliminating those having low quality scores. The resulting files containing the reads were mapped to the reference genome (BAM files), where reads that overlapped the target region of interest were selected and the number of wild type reads versus the number of reads which contain an insertion, substitution, or deletion was calculated.
The editing percentage (e.g., the “editing efficiency” or “percent editing”) is defined as the total number of sequence reads with insertions or deletions over the total number of sequence reads, including wild type.
CD-1 female mice were dosed i.v. at 0.1 mpk or 0.3 mpk. […] For animals dosed with G282 targeting TTR, blood and the liver were collected and serum TTR and editing were measured. For animals dosed with G650 targeting B2M, liver was collected and editing was measured.

[4] = LNP average particle size and polydispersity by dynamic light scattering (Malvern Zetasizer); type: physicochemical; settings: G282 1:1
Text: The LNPs have a size of about 1 to about 1,000 nm, about 10 to about 500 nm, about 20 to about 500 nm, in a sub-embodiment about 50 to about 400 nm, in a sub-embodiment about 50 to about 300 nm, in a sub-embodiment about 50 to about 200 nm, and in a sub-embodiment about 50 to about 150 nm, and in another sub-embodiment about 60 to about 120 nm. Preferably, the LNPs have a size from about 60 nm to about 100 nm. The average sizes (diameters) of the fully formed LNP, may be measured by dynamic light scattering on a Malvern Zetasizer. The LNP sample is diluted in phosphate buffered saline (PBS) so that the count rate is approximately 200-400 kcps. The data is presented as a weighted average of the intensity measure.
The LNPs disclosed herein have a size (e.g. Z-average diameter) of about 1 to about 250 nm. In some embodiments, the LNPs have a size of about 10 to about 200 nm. In further embodiments, the LNPs have a size of about 20 to about 150 nm. In some embodiments, the LNPs have a size of about 50 to about 150 nm. In some embodiments, the LNPs have a size of about 50 to about 100 nm. In some embodiments, the LNPs have a size of about 50 to about 120 nm. In some embodiments, the LNPs have a size of about 60 to about 100 nm. In some embodiments, the LNPs have a size of about 75 to about 150 nm. In some embodiments, the LNPs have a size of about 75 to about 120 nm. In some embodiments, the LNPs have a size of about 75 to about 100 nm. Unless indicated otherwise, all sizes referred to herein are the average sizes (diameters) of the fully formed nanoparticles, as measured by dynamic light scattering on a Malvern Zetasizer. The nanoparticle sample is diluted in phosphate buffered saline (PBS) so that the count rate is approximately 200-400 kcps. The data is presented as a weighted-average of the intensity measure (Z-average diameter).
Dynamic Light Scattering (“DLS”) is used to characterize the polydispersity index (“pdi”) and size of the LNPs of the present disclosure. DLS measures the scattering of light that results from subjecting a sample to a light source. PDI, as determined from DLS measurements, represents the distribution of particle size (around the mean particle size) in a population, with a perfectly uniform population having a PDI of zero.
LNP compositions are analyzed for average particle size, polydispersity index (pdi), total RNA content, encapsulation efficiency of RNA, and zeta potential. LNP compositions may be further characterized by lipid analysis, AF4-MALS, NTA, and/or cryo-EM. Average particle size and polydispersity are measured by dynamic light scattering (DLS) using a Malvern Zetasizer DLS instrument. LNP samples were diluted with PBS buffer prior to being measured by DLS. Z-average diameter which is an intensity-based measurement of average particle size was reported along with number average diameter and pdi. A Malvern Zetasizer instrument is also used to measure the zeta potential of the LNP. Samples are diluted 1:17 (50 μL into 800 μL) in 0.1×PBS, pH 7.4 prior to measurement.

[5] = RNA encapsulation efficiency of LNP (Ribogreen fluorescence assay); type: physicochemical; settings: G282 (TTR) 1:1 w/w, N:P 6.0
Description: A fluorescence-based assay (Ribogreen®, ThermoFisher Scientific) is used to determine total RNA concentration and free RNA. Encapsulation efficiency is calculated as (Total RNA−Free RNA)/Total RNA. LNP samples are diluted appropriately with 1× TE buffer containing 0.2% Triton-X 100 to determine total RNA or 1× TE buffer to determine free RNA. Standard curves are prepared by utilizing the starting RNA solution used to make the compositions and diluted in 1× TE buffer+/−0.2% Triton-X 100. Diluted RiboGreen® dye (according to the manufacturer's instructions) is then added to each of the standards and samples and allowed to incubate for approximately 10 minutes at room temperature, in the absence of light. A SpectraMax M5 Microplate Reader (Molecular Devices) is used to read the samples with excitation, auto cutoff and emission wavelengths set to 488 nm, 515 nm, and 525 nm respectively. Total RNA and free RNA are determined from the appropriate standard curves.
Encapsulation efficiency is calculated as (Total RNA−Free RNA)/Total RNA. The same procedure may be used for determining the encapsulation efficiency of a DNA-based cargo component. For single-strand DNA Oligreen Dye may be used, and for double-strand DNA, Picogreen Dye.

[6] = Example 56: 0.1 mpk i.v., 7 days post-dose, G282
[7] = Example 64: Dose 0.03 mpk (table) i.v., 7 days post-dose
[8] = Example 64: Dose 0.03 mpk (table) i.v., 7 days post-dose, G282 1:1
[9] = 168 h, Example 64: Dose 0.03 mpk (table) i.v., 7 days post-dose, G282 1:1
[10] = Example 61: 0.1 mpk i.v., 7 days post-dose
[11] = Example 61: 0.1 mpk i.v., 7 days post-dose, G282 1:1
[12] = 168 h, Example 61: 0.1 mpk i.v., 7 days post-dose, G282 1:1

SMILES: CCCCCCCCCOC(=O)CCCCCCCN(CCO)CCCCCCCCCC(OCCCCCCCC)OCCCCCCCC [Compound 5]
Editing % (TTR [1]; [6]): 9%
pKa [2]: 7.08
Serum TTR (TTR [3]; [6]): 738 µg/mL
Serum TTR (% TSS) (TTR [3]; [6]): 92 % TSS
Editing (%) of B2M in mouse liver (B2M): 13.2%

pKa [2]: 6.3
SMILES: CCCCCCCCCOC(=O)CCCCCCCN(CCO)CCCCCCCCCC(OCCCCCCCCC)OCCCCCCCCC [Compound 6, 8-[10,10-di(nonoxy)decyl-(2-hydroxyethyl)amino]octanoate]
Editing (%) of B2M in mouse liver (B2M): 8.2%

SMILES: CCCCCCCCCOC(=O)CCCCCCCN(CCCCCCC(OCCCCCCCC)OCCCCCCCC)CCNC(=O)OC [Compound 44, nonyl 8-((7,7-bis(octyloxy)heptyl)(2-((methoxycarbonyl)amino)ethyl)amino)octanoate]
Num Ave Size (nm) ([4]; Table 26, Example 64: LNP): 92 nm
PDI ([4]; Table 26, Example 64: LNP): 0.25
Z-Ave Size (nm) ([4]; Table 26, Example 64: LNP): 185 nm
Encapsulation (%) ([5]; Table 26, Example 64: LNP): 59%
Editing Mean % Indel (TTR [1]; [7]): 7.9%
pKa [2]: 5.62
Serum TTR (TTR [3]; [8]): 603.9 µg/mL
inhibition in vivo at 0.03 mg/kg (TTR [3]; [9]): -5.5%

SMILES: CCCCCCCCCOC(=O)CCCCCCCN(CCCCCCC(OCCCCCCCC)OCCCCCCCC)CCCNC(=O)NC [Compound 46, nonyl 8-((7,7-bis(octyloxy)heptyl)(3-(3-methylureido)propyl)amino)octanoate]
Num Ave Size (nm) ([4]; Table 26, Example 64: LNP): 86 nm
PDI ([4]; Table 26, Example 64: LNP): 0.03
Z-Ave Size (nm) ([4]; Table 26, Example 64: LNP): 104 nm
Encapsulation (%) ([5]; Table 26, Example 64: LNP): 98%
Editing Mean % Indel (TTR [1]; [7]): 8.7%
pKa [2]: 7.64
Serum TTR (TTR [3]; [8]): 514.6 µg/mL
inhibition in vivo at 0.03 mg/kg (TTR [3]; [9]): 10.1%

SMILES: CCCCCCCCCOC(=O)CCCCCCCN(CCO)CCCCCCCCCC(OCCCCCCC)OCCCCCCC [Compound 4, nonyl 8-[10, 10-diheptoxydecyl(2-hydroxyethyl)amino]octanoate]
Editing Mean % Indel (TTR [1]; [10]): 46.7%
pKa [2]: 7.04
Serum TTR (TTR [3]; [11]): 333 µg/mL
response vs control in vivo at 0.1 mg/kg (TTR [3]; [12]): 26%
% Editing B2M in mouse liver (B2M; Example 54: 0.1 mpk i.v.): 29%
% Editing B2M in mouse liver (B2M; Example 54: 0.3 mpk i.v.): 57%

Num Ave Size (nm) ([4]; Table 20, Example 61: LNP): 48.37 nm
PDI ([4]; Table 20, Example 61: LNP): 0.07
Z-Ave Size (nm) ([4]; Table 20, Example 61: LNP): 63.25 nm
Encapsulation (%) ([5]; Table 20, Example 61: LNP): 99%
pKa [2]: 6.19
SMILES: CCCCCCCCCOC(=O)CCCCCCCN(CCO)CCCCCCCCCC(CCCCCCCC)CCCCCCCC [Compound 26, nonyl 8-((2-hydroxyethyl)(10-octyloctadecyl)amino)octanoate, reference compound]
Editing Mean % Indel (TTR [1]; [10]): 2.6%
Serum TTR (TTR [3]; [11]): 979 µg/mL
response vs control in vivo at 0.1 mg/kg (TTR [3]; [12]): 76%

Num Ave Size (nm) ([4]; Table 14, Example 58: LNP): 66.66 nm
PDI ([4]; Table 14, Example 58: LNP): 0.132
Z-Ave Size (nm) ([4]; Table 14, Example 58: LNP): 109.5 nm
Encapsulation (%) ([5]; Table 14, Example 58: LNP): 78%
pKa [2]: 6.34
SMILES: CCCCCC/C=C\COC(=O)CCCCCCCN(CCO)CCCCCCCC(OCCCCCCCC)OCCCCCCCC [Compound 16, (Z)-non-2-en-1-yl 8-((8,8-bis(octyloxy)octyl)(2-hydroxyethyl)amino)octanoate]
Editing Mean % Indel (TTR [1]; Example 58: 0.1 mpk i.v., 6 days post-dose): 35.2%
Serum TTR (TTR [3]; Example 58: 0.1 mpk i.v., 6 days post-dose, G282 1:1): 516 µg/mL
response vs control in vivo at 0.1 mg/kg (TTR [3]; 144 h, Example 58: 0.1 mpk i.v., 6 days post-dose, G282 1:1): 52%

pKa [2]: 6.23
SMILES: CCCCCCCCCOC(=O)CCCCCCCN(CCO)CCCCCCCC(OCCCCCCCCC)OCCCCCCCCC [Compound 2]
Editing (%) of B2M in mouse liver (B2M): 17.7%
